From article PMC5769417, “Single- and Multiple-Dose Trials to Determine the Pharmacokinetics, Safety, Tolerability, and Sex Effect of Oral Ginsenoside Compound K in Healthy Chinese Volunteers” (Frontiers in Pharmacology, 2018)

Legend:
[1] = test system: healthy Chinese volunteers; assay: Single-dose trial, safety and tolerability (adverse events); assay type: in vivo, human
Experimental: Single-dose pharmacokinetics: The single-dose trial was performed first. Seven doses of CK were given orally under fasting condition: 25, 50, 100, 200, 400, 600, and 800 mg. Eligible subjects (n = 76, male:female = 1:1) were randomized into each dose level (n = 8, 8, 10, 10, 10, 8, 8, respectively) or placebo groups (n = 2 for each dose group) with equal number of men and women in each group. Subjects in each group were admitted to the clinical facility the day before drug administration and received the corresponding dose of the test drug or placebo with 250 ml warm water on the morning of the dosing day. Drinking before and after medication was prohibited for 2 h, but the amount and time of drinking were not strictly controlled at other times. All subjects had standard lunch and dinner (unified light diet) after medication 4 and 10 h.
Safety was evaluated by continuous observation of adverse events (AEs), monitoring of vital signs, ECG, hematology, biochemistry, and urinalysis at baseline, during the trials at the set time points following drug administration, and at follow-up visits after study completion. AEs were classified by their intensity into mild, moderate and severe. Additionally, the AEs were also classified according their relationship to the test drug as positive, probable, possible, remote, or unrelated. The severity of the AEs, as well as their relationship to test drug, was assessed by a qualified physician in the unit. Clinically relevant changes in vital signs, ECG and laboratory parameters were defined as marked abnormalities. ECG were recorded in the semisupine position after a rest of at least 5 min. It is worth noting that all the information, including symptoms and signs after dosing or the medications that the subjects were concomitantly taking must be recorded on the case-report form by investigators. All available data from subjects who received the test drug and placebo were included in the summaries of the safety data and were descriptively analyzed. In addition, the differences between laboratory parameters at baseline and after drug treatment were analyzed to determine whether there were clinical significances.
All the safety data, including vital signs, laboratory indexes and ECG, were descriptively analyzed, and the statistical analyses were conducted to evaluate the effects of the test drug by comparing the differences between before and after drug treatment, between the test drug group and the placebo group and among the different dose groups.

CYP2C9 = test system: CYP2C9; parameters: method as in Xiao et al., 2016; conditions: human liver microsomes, human recombinant CYPs; ref Xiao et al., 2016; cited from earlier work
[2] = single-dose trial, 25 mg (n = 8)
[3] = single-dose trial, 50 mg (n = 8)
[4] = single-dose trial, 100 mg (n = 10)
[5] = single-dose trial, 200 mg (n = 10)
[6] = single-dose trial, 400 mg (n = 10)
[7] = single-dose trial, 600 mg (n = 8)
[8] = single-dose trial, 800 mg (n = 8)
[9] = single-dose trial, of the 44 cases of AEs

CC(C)=CCC[C@](C)(OC1O[C@H](CO)[C@@H](O)[C@H](O)[C@H]1O)[C@H]1CC[C@]2(C)[C@@H]1[C@H](O)C[C@@H]1[C@@]3(C)CC[C@H](O)C(C)(C)[C@@H]3CC[C@]12C (stereo partly drawn) [CK, 20-O-beta-D-glucopyranosyl-20(S)-protopanaxadiol]
ECG after the drug treatments ([1]; both trials): none of the subjects had clinically significant abnormalities | intensity of all observed AEs ([1]; both trials): mild or moderate | serious AEs ([1]; both trials): no serious AEs reported | safety and tolerability ([1]; single dose 25 to 800 mg and multiple doses of 100–400 mg, both trials): safe and well-tolerated | AEs after taking the test drug ([1]; single-dose trial): 33 AEs | subjects who suffered AEs after taking the test drug ([1]; single-dose trial): 22 subjects | Alkaline phosphatase increased (study drug-related AE) [1, 2]: 0 number of subjects (%) | Any AEs (study drug-related) [1, 2]: 0 number of subjects (%) | Bellyache (study drug-related AE) [1, 2]: 0 number of subjects (%) | Blood white cells increased (study drug-related AE) [1, 2]: 0 number of subjects (%) | Diarrhea (study drug-related AE) [1, 2]: 0 number of subjects (%) | Direct bilirubin increased (study drug-related AE) [1, 2]: 0 number of subjects (%) | Dizziness (study drug-related AE) [1, 2]: 0 number of subjects (%) | Headache (study drug-related AE) [1, 2]: 0 number of subjects (%) | Loss of appetite (study drug-related AE) [1, 2]: 0 number of subjects (%) | Nausea (study drug-related AE) [1, 2]: 0 number of subjects (%) | Rash (study drug-related AE) [1, 2]: 0 number of subjects (%) | Subcutaneous bleeding (double forearm) (study drug-related AE) [1, 2]: 0 number of subjects (%) | Total bilirubin increased (study drug-related AE) [1, 2]: 0 number of subjects (%) | Alkaline phosphatase increased (study drug-related AE) [1, 3]: 0 number of subjects (%) | Any AEs (study drug-related) [1, 3]: 2 (2.6) number of subjects (%) | Bellyache (study drug-related AE) [1, 3]: 0 number of subjects (%) | Blood white cells increased (study drug-related AE) [1, 3]: 0 number of subjects (%) | Diarrhea (study drug-related AE) [1, 3]: 0 number of subjects (%) | Direct bilirubin increased (study drug-related AE) [1, 3]: 2 (2.6) number of subjects (%) | Dizziness (study drug-related AE) [1, 3]: 0 number of subjects (%) | Headache (study drug-related AE) [1, 3]: 0 number of subjects (%) | Loss of appetite (study drug-related AE) [1, 3]: 0 number of subjects (%) | Nausea (study drug-related AE) [1, 3]: 0 number of subjects (%) | Rash (study drug-related AE) [1, 3]: 0 number of subjects (%) | Subcutaneous bleeding (double forearm) (study drug-related AE) [1, 3]: 0 number of subjects (%) | Total bilirubin increased (study drug-related AE) [1, 3]: 0 number of subjects (%) | Alkaline phosphatase increased (study drug-related AE) [1, 4]: 0 number of subjects (%) | Any AEs (study drug-related) [1, 4]: 2 (2.6) number of subjects (%) | Bellyache (study drug-related AE) [1, 4]: 0 number of subjects (%) | Blood white cells increased (study drug-related AE) [1, 4]: 0 number of subjects (%) | Diarrhea (study drug-related AE) [1, 4]: 0 number of subjects (%) | Direct bilirubin increased (study drug-related AE) [1, 4]: 0 number of subjects (%) | Dizziness (study drug-related AE) [1, 4]: 1 (1.3) number of subjects (%) | Headache (study drug-related AE) [1, 4]: 1 (1.3) number of subjects (%) | Loss of appetite (study drug-related AE) [1, 4]: 0 number of subjects (%) | Nausea (study drug-related AE) [1, 4]: 0 number of subjects (%) | Rash (study drug-related AE) [1, 4]: 0 number of subjects (%) | Subcutaneous bleeding (double forearm) (study drug-related AE) [1, 4]: 0 number of subjects (%) | Total bilirubin increased (study drug-related AE) [1, 4]: 0 number of subjects (%) | Alkaline phosphatase increased (study drug-related AE) [1, 5]: 1 (1.3) number of subjects (%) | Any AEs (study drug-related) [1, 5]: 5 (6.6) number of subjects (%) | Bellyache (study drug-related AE) [1, 5]: 0 number of subjects (%) | Blood white cells increased (study drug-related AE) [1, 5]: 0 number of subjects (%) | Diarrhea (study drug-related AE) [1, 5]: 2 (2.6) number of subjects (%) | Direct bilirubin increased (study drug-related AE) [1, 5]: 2 (2.6) number of subjects (%) | Dizziness (study drug-related AE) [1, 5]: 0 number of subjects (%) | Headache (study drug-related AE) [1, 5]: 0 number of subjects (%) | Loss of appetite (study drug-related AE) [1, 5]: 0 number of subjects (%) | Nausea (study drug-related AE) [1, 5]: 0 number of subjects (%) | Rash (study drug-related AE) [1, 5]: 0 number of subjects (%) | Subcutaneous bleeding (double forearm) (study drug-related AE) [1, 5]: 0 number of subjects (%) | Total bilirubin increased (study drug-related AE) [1, 5]: 1 (1.3) number of subjects (%) | Alkaline phosphatase increased (study drug-related AE) [1, 6]: 0 number of subjects (%) | Any AEs (study drug-related) [1, 6]: 5 (6.6) number of subjects (%) | Bellyache (study drug-related AE) [1, 6]: 1 (1.3) number of subjects (%) | Blood white cells increased (study drug-related AE) [1, 6]: 1 (1.3) number of subjects (%) | Diarrhea (study drug-related AE) [1, 6]: 2 (2.6) number of subjects (%) | Direct bilirubin increased (study drug-related AE) [1, 6]: 1 (1.3) number of subjects (%) | Dizziness (study drug-related AE) [1, 6]: 0 number of subjects (%) | Headache (study drug-related AE) [1, 6]: 1 (1.3) number of subjects (%) | Loss of appetite (study drug-related AE) [1, 6]: 0 number of subjects (%) | Nausea (study drug-related AE) [1, 6]: 0 number of subjects (%) | Rash (study drug-related AE) [1, 6]: 0 number of subjects (%) | Subcutaneous bleeding (double forearm) (study drug-related AE) [1, 6]: 0 number of subjects (%) | Total bilirubin increased (study drug-related AE) [1, 6]: 0 number of subjects (%) | Alkaline phosphatase increased (study drug-related AE) [1, 7]: 0 number of subjects (%) | Any AEs (study drug-related) [1, 7]: 1 (1.3) number of subjects (%) | Bellyache (study drug-related AE) [1, 7]: 0 number of subjects (%) | Blood white cells increased (study drug-related AE) [1, 7]: 0 number of subjects (%) | Diarrhea (study drug-related AE) [1, 7]: 0 number of subjects (%) | Direct bilirubin increased (study drug-related AE) [1, 7]: 1 (1.3) number of subjects (%) | Dizziness (study drug-related AE) [1, 7]: 0 number of subjects (%) | Headache (study drug-related AE) [1, 7]: 0 number of subjects (%) | Loss of appetite (study drug-related AE) [1, 7]: 0 number of subjects (%) | Nausea (study drug-related AE) [1, 7]: 0 number of subjects (%) | Rash (study drug-related AE) [1, 7]: 0 number of subjects (%) | Subcutaneous bleeding (double forearm) (study drug-related AE) [1, 7]: 0 number of subjects (%) | Total bilirubin increased (study drug-related AE) [1, 7]: 0 number of subjects (%) | Alkaline phosphatase increased (study drug-related AE) [1, 8]: 0 number of subjects (%) | Any AEs (study drug-related) [1, 8]: 3 (3.9) number of subjects (%) | Bellyache (study drug-related AE) [1, 8]: 1 (1.3) number of subjects (%) | Blood white cells increased (study drug-related AE) [1, 8]: 0 number of subjects (%) | Diarrhea (study drug-related AE) [1, 8]: 1 (1.3) number of subjects (%) | Direct bilirubin increased (study drug-related AE) [1, 8]: 0 number of subjects (%) | Dizziness (study drug-related AE) [1, 8]: 0 number of subjects (%) | Headache (study drug-related AE) [1, 8]: 0 number of subjects (%) | Loss of appetite (study drug-related AE) [1, 8]: 0 number of subjects (%) | Nausea (study drug-related AE) [1, 8]: 0 number of subjects (%) | Rash (study drug-related AE) [1, 8]: 1 (1.3) number of subjects (%) | Subcutaneous bleeding (double forearm) (study drug-related AE) [1, 8]: 0 number of subjects (%) | Total bilirubin increased (study drug-related AE) [1, 8]: 0 number of subjects (%) | AEs possibly related to CK [1, 9]: 7 cases | AEs probably related to the test drug [1, 9]: 13 cases | inhibition of CYP2C9 (CYP2C9): moderate inhibitor | substrate of CYP2C9 (CYP2C9): substrate
